This passage reports GI50 and TGI results from PubChem BioAssay (NCI).

Holding throughout (assay): DTP human tumour cell line panel, 48 h
The test system of assay [1] is IGROV1 ovarian.
Assay [2] relates to LOX IMVI melanoma.
For assay [3], the system named is MOLT-4 leukemia.
The subject of assay [4] is A498 renal.
For assay [5], the system named is TK-10 renal.
Assay [6] has as its system HCC-2998 colon.
Assay [7] relates to SN12C renal.
The subject of assay [8] is OVCAR-8 ovarian.
In assay [9] the test system is RXF 393 renal.
Assay [10] deals with K-562 leukemia.
In assay [11] the test system is EKVX NSCLC.
In assay [12] the test system is HS 578T breast.
The test system of assay [13] is SW-620 colon.
In assay [14] the test system is SF-295 CNS.
Assay [15] concerns T-47D breast.
Assay [16] concerns HOP-62 NSCLC.
For assay [17], the system named is U251 CNS.
Assay [18] has as its system A549 NSCLC.
Assay [19] concerns DU-145 prostate.
The subject of assay [20] is HT29 colon.
Assay [21] relates to SR leukemia.
Assay [22] has as its system MALME-3M melanoma.
Assay [23] deals with CCRF-CEM leukemia.
Assay [24] deals with NCI-H522 lung.
In assay [25] the test system is SK-MEL-2 melanoma.
In assay [26] the test system is KM12 colon.
In assay [27] the test system is OVCAR-3 ovarian.
The subject of assay [28] is UACC-62 melanoma.
Assay [29] has as its system OVCAR-5 ovarian.
In assay [30] the test system is SK-MEL-28 melanoma.
The test system of assay [31] is MDA-MB-468 breast.
In assay [32] the test system is HCT-15 colon.
Assay [33] relates to SF-268 CNS.
Assay [34] has as its system HL-60(TB) leukemia.
Assay [35] deals with BT-549 breast.
The subject of assay [36] is OVCAR-4 ovarian.
Assay [37] deals with SF-539 CNS.
In assay [38] the test system is COLO 205 colon.
Assay [39] deals with SK-OV-3 ovarian.
Assay [40] concerns PC-3 prostate.
The subject of assay [41] is SNB-75 CNS.
Assay [42] has as its system M14 melanoma.
In assay [43] the test system is SK-MEL-5 melanoma.
Assay [44] has as its system 786-0 renal.
The subject of assay [45] is NCI-H226 lung.
Assay [46] concerns ACHN renal.
In assay [47] the test system is RPMI-8226 leukemia.
Assay [48] concerns NCI-H23 lung.
For assay [49], the system named is UO-31 renal.
The subject of assay [50] is MDA-MB-435.
The subject of assay [51] is HCT-116 colon.
The test system of assay [52] is CAKI-1 renal.
For assay [53], the system named is HOP-92 NSCLC.
The subject of assay [54] is MDA-MB-231 breast.
Assay [55] relates to NCI/ADR-RES ovarian.
The test system of assay [56] is UACC-257 melanoma.
Assay [57] has as its system NCI-H460 lung.
Assay [58] deals with SNB-19 CNS.

What is called GI50 is the concentration at which growth is held to half of that of the control. Usually TGI stands for the concentration at which net growth stops.

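Each compound was tested at five concentrations against cells in 96-well plates for 48 hours. Abbreviation: GI50, concentration required for 50% inhibition of growth. Definition used: TGI = concentration required for complete inhibition of growth.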 Some results are limits rather than exact numbers.

In the case of `COc1cc2c3c(n(CCCN4CCOCC4)c(=O)c2cc1OC)-c1nc2c(cc1C3=O)OCO2`, the GI50 is over 100 µM in [1]; 0.17 µM in assay [2]; 0.0581 µM in [3]; over 69.2 µM in assay [4]; over 100 µM in assay [5]; 1.86 µM in assay [6]. For the same compound, the GI50 was 2.72 µM in [7]; 2.92 µM in [8]; 1.2 µM in assay [9]; 0.177 µM in assay [10]; 1.97 µM in assay [11]; 25.3 µM in [12]. Further, the GI50 was 0.477 µM in assay [13]; 0.0556 µM in assay [14]; 0.185 µM in assay [15]; 0.051 µM in [16]; 0.109 µM in assay [17]; 3.43 µM in [18]. The GI50 in assay [19] was 0.418 µM; in assay [20], 0.442 µM; in assay [21], 0.0606 µM; in assay [22], 1.75 µM; in assay [23], 0.0351 µM; in [24], 0.277 µM. Besides, the GI50 was over 100 µM in assay [25]; over 53.9 µM in [26]; 4.61 µM in assay [27]; 0.117 µM in [28]; 4.91 µM in assay [29]; over 52 µM in assay [30]. For the same compound, the GI50 in [31] was 0.13 µM; in assay [32], 1.24 µM; in assay [33], 0.892 µM; in [34], 1.25 µM; in assay [35], 0.619 µM; in assay [36], over 100 µM. The GI50 is 0.226 µM in assay [37]; 1.36 µM in assay [38]; 0.217 µM in [39]; 2.09 µM in [40]; 0.254 µM in [41]; 0.25 µM in [42]. Further, the GI50 in assay [43] was 0.18 µM; in assay [44], 0.593 µM; in assay [45], 0.495 µM; in [46] it was 0.15 µM; in assay [47], 0.341 µM; in [48], 0.185 µM. Moreover, the GI50 in assay [49] was 0.499 µM; in assay [50], 0.828 µM; in [51], 0.416 µM; in [52], 0.159 µM; in assay [53], 2.87 µM; in assay [54], 2.38 µM. For the same compound, the figures for the GI50 in assay [55], in [57] and in assay [58] were 0.327 µM, 0.0772 µM and 0.271 µM, respectively. For the same compound, the TGI in assay [1] is over 100 µM; in assay [2] it was 1.47 µM; in [3] it was 16 µM; in [4], over 100 µM; in assay [5] it was over 100 µM; in assay [6] it was over 100 µM. Further, the TGI in assay [7] is over 100 µM; in [8], over 100 µM; in assay [10], over 82.9 µM; in assay [11] it was over 100 µM; in [12] it was over 100 µM; in assay [13], over 100 µM. The TGI is 1.7 µM in assay [14]; over 100 µM in assay [15]; 0.748 µM in assay [16]; 3.78 µM in [17]; over 100 µM in assay [18]; over 100 µM in [19]. Moreover, the TGI was 11.6 µM in assay [20]; over 49 µM in assay [21]; over 100 µM in assay [22]; 1.72 µM in assay [23]; 15.7 µM in [24]; over 100 µM in assay [25]. The TGI in [26] was over 100 µM; in assay [27] it was over 100 µM; in [28], over 100 µM; in assay [29] it was over 100 µM; in [30] it was over 100 µM; in assay [31] it was 0.51 µM. The TGI in assay [32] is over 100 µM; in assay [33], over 100 µM; in assay [34], over 100 µM; in assay [35], 8.43 µM; in [36], over 100 µM; in assay [37] it was 1.33 µM. Further, the TGI was over 100 µM in assay [38]; 4 µM in [39]; over 100 µM in assay [40]; over 64.5 µM in assay [41]; over 100 µM in assay [42]; 0.61 µM in assay [43]. Further, the TGI in assay [44] was 29.4 µM; in assay [45], over 33 µM; in assay [46], over 100 µM; in assay [47], over 56.4 µM; in assay [48], 1.52 µM; in assay [49], over 100 µM. Further, the TGI in assay [50] was over 100 µM; in assay [51] it was over 100 µM; in assay [52], over 100 µM; in [53] it was over 100 µM; in [54], 5.62 µM; in assay [55] it was 3.68 µM. Also, the TGI in assay [56] was over 100 µM; in assay [57], 2.35 µM; in assay [58], over 100 µM.
Consider `C[C@@H]1C[N+]2([O-])[C@H]3C4=CCC[C@@H]4CC[C@H]3[C@@]3(C)OC(=O)CC[C@]34CC[C@H]1[C@@H]42` (some centres undefined), for which, in [31], the GI50 is over 60 µM and the TGI was over 60 µM.
With `O=C(Nc1cccc(Cl)c1)Nc1nc2ccc([N+](=O)[O-])cc2s1`, in [31], the GI50 is 1.04 µM and the TGI was 3.25 µM.
As for `O=C(N/N=C\c1ccc(Cl)cc1)c1ccc2nc(-c3ccc(Br)cc3)[nH]c2c1`, in [31], the GI50 was 2.02 µM and the TGI worked out at 3.86 µM.
As to `COc1cc(NCCCCCN=C(N)N)c2ncccc2c1`, in assay [31], the GI50 was 0.078 µM and the TGI is 0.344 µM.
Take `COc1ccc2[nH]c(-c3ccccc3)c(/C=C(\C#N)S(=O)(=O)c3ccccc3)c2c1`: in [31], the GI50 was 4.17 µM and the TGI is over 100 µM.
